In ChEMBL document CHEMBL1143712, “Structure-activity relationships of novel N-acyloxy-1,4-dihydropyridines as P-glycoprotein inhibitors” (Bioorg Med Chem, 2007):

Tests used:
[1] = biological target: T1, ATP-dependent translocase ABCB1 (Mus musculus, UniProt P06795); experiment: Inhibition of P-glycoprotein in MDR mouse T lymphoma cells using rhodamine 123 assessed as ratio of fluorescent uptake relative to untreated control at 10 uM in MDR reversal assay by flow cytometry; format: cell-based
[2] = biological target: T1, ATP-dependent translocase ABCB1; experiment: Inhibition of P-glycoprotein in MDR mouse T lymphoma cells using rhodamine 123 assessed as ratio of fluorescent uptake relative to untreated control at 1 uM in MDR reversal assay by flow cytometry; format: cell-based

T1 sequence (P06795 whole entry): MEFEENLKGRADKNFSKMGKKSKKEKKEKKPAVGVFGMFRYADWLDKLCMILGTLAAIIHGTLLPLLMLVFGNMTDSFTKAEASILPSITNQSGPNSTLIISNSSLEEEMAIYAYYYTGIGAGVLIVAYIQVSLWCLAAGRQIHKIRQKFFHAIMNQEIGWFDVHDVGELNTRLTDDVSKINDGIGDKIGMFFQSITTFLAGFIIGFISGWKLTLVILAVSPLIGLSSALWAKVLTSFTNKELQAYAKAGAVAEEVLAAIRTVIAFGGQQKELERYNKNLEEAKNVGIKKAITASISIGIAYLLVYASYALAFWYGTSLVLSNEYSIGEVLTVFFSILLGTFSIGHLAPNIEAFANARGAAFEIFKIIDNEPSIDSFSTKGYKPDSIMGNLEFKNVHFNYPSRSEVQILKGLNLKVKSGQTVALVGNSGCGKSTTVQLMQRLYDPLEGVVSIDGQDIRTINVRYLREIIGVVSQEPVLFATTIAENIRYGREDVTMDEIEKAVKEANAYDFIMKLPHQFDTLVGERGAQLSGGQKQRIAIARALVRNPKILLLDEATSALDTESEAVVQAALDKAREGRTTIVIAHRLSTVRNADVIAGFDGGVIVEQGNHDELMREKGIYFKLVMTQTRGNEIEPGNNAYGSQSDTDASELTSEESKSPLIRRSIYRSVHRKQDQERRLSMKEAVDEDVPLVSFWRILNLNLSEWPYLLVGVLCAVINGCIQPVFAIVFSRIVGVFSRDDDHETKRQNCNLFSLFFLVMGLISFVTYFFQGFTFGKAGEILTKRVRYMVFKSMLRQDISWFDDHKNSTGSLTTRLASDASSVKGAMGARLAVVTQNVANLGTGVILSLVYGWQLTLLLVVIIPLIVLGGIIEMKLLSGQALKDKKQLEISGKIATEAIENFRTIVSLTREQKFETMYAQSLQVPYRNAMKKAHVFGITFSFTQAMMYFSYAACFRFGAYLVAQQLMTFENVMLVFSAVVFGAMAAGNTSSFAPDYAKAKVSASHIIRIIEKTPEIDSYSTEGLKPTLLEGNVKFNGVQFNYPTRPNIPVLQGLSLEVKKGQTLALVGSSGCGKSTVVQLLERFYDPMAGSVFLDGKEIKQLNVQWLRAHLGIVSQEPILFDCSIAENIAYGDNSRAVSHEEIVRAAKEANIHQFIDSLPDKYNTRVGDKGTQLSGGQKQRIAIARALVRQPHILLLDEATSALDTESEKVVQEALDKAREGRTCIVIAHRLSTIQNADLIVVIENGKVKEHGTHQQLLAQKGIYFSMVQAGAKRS

Structure (SMILES) | Activity [1] | Activity [2]
CCOC(=O)C1=CN(C(=O)Oc2ccccc2)C=CC1c1ccc(C)cc1 (configuration not stated) | 3.09 | 1.04
COc1ccccc1C1C=CN(C(=O)Oc2ccccc2)C=C1C(C)=O (configuration not stated) | 5.15 | 1.01
CCOC(=O)C1=CN(C(=O)Oc2ccccc2)C=CC1c1ccccc1OC (configuration not stated) | 39.98 | 1.6
CCOC(=O)C1=CN(C(=O)Oc2ccccc2)C=CC1c1ccc(OC)cc1 (configuration not stated) | 19.87 | 1.3
COc1ccc(C2C=CN(C(=O)Oc3ccccc3)C=C2C(C)=O)cc1 (configuration not stated) | 7.1 | 1.81
CC(=O)C1=CN(C(=O)Oc2ccccc2)C=CC1c1ccc(C)cc1 (configuration not stated) | 3.58 | 1.41
